# Laboratory results: paper PMC12752606, “METTL10‐Mediated PIAS3 Methylation Links Purine Metabolism to Gastric Cancer Progression” (Advanced Science, 2025)
# Assays:
# [1] = target: T1, GFP-tagged METTL10 protein (Homo sapiens, UniProt Q5JPI9); assay: Microscale thermophoresis (MST); type: binding; conditions: lysate of HEK293T cells expressing GFP-METTL10, read-out: Dissociation constant (KD)
# T1 construct: host or cells: HEK293T
# Experimental: Microscale thermophoresis (MST) assays were conducted following the protocol.^[ [49] ^] Briefly, HEK293T cells were transfected with either the pEGFP‐N1‐METTL10 plasmid or the control pEGFP‐N1‐Vector plasmid for 24 h. Subsequently, protein lysates were obtained through ultrasonic disruption at 4 °C. Aliquots of the lysate were then incubated with serially diluted ligands at 37 °C for 30 min. Fluorescence signals were measured, and dissociation constants (Kd) were determined using the NanoTemper Monolith Pico.
# [2] = test system: METTL10 protein levels in MKN45 and AGS cells; assay: Immunoblotting of METTL10 protein levels in treated GC cells; type: cell-based; conditions: 20 µM, not rescued by MG132
# Experimental: Protein extraction from tissues or cells was performed by lysis buffer (20 mM Tris‐HCl (pH 7.5), 150 mM NaCl, 1 mM EDTA, 1 mM EGTA, 2.5 mM sodium pyrophosphate, 1 mM β‐glycerolphosphate, 1% Triton X‐100) supplemented with 1% phenylmethylsulfonyl fluoride (PMSF; Solarbio, P0100) and protease inhibitor cocktail (Apexbio, K1007) and lysed at 4 °C for 60 min, followed by centrifugation at 12000 g for 15 min at 4 °C. For Immunoblotting, the protein concentration was determined using the Pierce BCA Protein Assay Kit (Thermo Fisher Scientific, A55864). The protein samples were denatured by boiling in SDS‐PAGE loading buffer. For immunoprecipitation, antibodies were incubated with Dynabeads Protein G (Thermo, 10004D) at 4 °C for 4 h. The supernatant was then incubated with magnetic beads conjugated with antibodies or anti‐FLAG‐M2 magnetic beads (Sigma–Aldrich, M8823) at 4 °C overnight. Following incubation, the magnetic beads were washed three times with lysis buffer and then boiled in SDS‐PAGE loading buffer. The proteins were separated by sodium dodecyl sulfate polyacrylamide gel electrophoresis (SDS‐PAGE) with One‐Step PAGE Gel Fast Preparation Kit (Vazyme), and then transferred to the PVDF Membrane (Bio‐Rad). After blocking with a protein‐free rapid blocking buffer (Epizyme, PS108P) for 15 min, the membranes were incubated with primary antibodies at 4 °C overnight. […]
# METTL10 = target: T2, METTL10 (Homo sapiens, UniProt Q5JPI9); assay: MTase-Glo in vitro methylation assay, METTL10-mediated PIAS3 methylation; type: biochemical
# T2 construct: His; made in house; host or cells: E. coli BL21
# T2 sequence (Q5JPI9 1-291 isoform Q5JPI9-1): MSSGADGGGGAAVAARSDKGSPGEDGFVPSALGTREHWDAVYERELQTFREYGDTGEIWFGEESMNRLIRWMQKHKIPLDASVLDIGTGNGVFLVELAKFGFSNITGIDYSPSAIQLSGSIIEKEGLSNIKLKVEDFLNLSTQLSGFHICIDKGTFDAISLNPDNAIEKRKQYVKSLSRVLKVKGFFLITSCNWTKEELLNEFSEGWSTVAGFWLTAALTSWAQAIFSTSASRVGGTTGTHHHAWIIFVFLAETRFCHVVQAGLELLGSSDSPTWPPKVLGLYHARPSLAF
# Experimental: For the in vitro methylation assay, His‐METTL10 (1 µg) was incubated with recombinant human Histone H4 protein (20 ng; Abcam, ab198115) or GST‐PIAS3 (100 ng) of in methylation reaction buffer (50 mM Tris‐HCl (pH 8.0), 20 mM KCl, 5 mM DTT, 4 mM EDTA) containing 20 µM S‐(5′‐adenosyl)‐L‐methionine chloride dihydrochloride (SAM) at 37 °C for 1 h. The reaction was terminated by boiling the samples in SDS‐PAGE loading buffer, and the products were analyzed by immunoblotting.
# To identify METTL10 inhibitors, an in‐silico screening was first conducted on an in‐house compound library comprising approximately 6000 structurally diverse molecules. Molecular docking simulations with the METTL10 protein identified 111 candidate compounds for further analysis. The methyltransferase activity of these candidates was assessed using the MTase‐Glo Methyltransferase Assay (Promega, V7601) according to the manufacturer's protocol. Briefly, the candidate compounds were preincubated with His‐METTL10 protein (1 µg) at 37 °C for 1 h in a methylation reaction buffer (50 mM Tris‐HCl (pH 8.0), 20 mM KCl, 5 mM DTT, 4 mM EDTA, and 20 µM SAM), followed by the addition of either the Histone H4 or PIAS3 peptide substrate for an additional 1 h. The reaction was then subjected to MTase‐Glo reagent buffer for 30 min, followed by MTase‐Glo detection buffer for another 30 min. Luminescence was measured using a luminometer (Promega), and IC50 values were calculated using GraphPad Prism 8 software.
# MKN45 and AGS cells = assay: Cell proliferation, CCK-8 assay; type: cell-based; conditions: 10 and 20 µM
# Experimental: Cell proliferation was assessed using Cell Counting Kit‐8 (CCK‐8; K1018, APExBIO). Briefly, 1000 cells per well were seeded into 96‐well plates, and proliferation was measured at 450 nm on days 0, 1, 3, 5, and 7 using the CCK‐8 assay using a multifunctional microplate reader.
# T1 sequence (Q5JPI9 1-291 isoform Q5JPI9-1): as above
structure (smiles),measurement,setting,value
"Cc1ccc(Nc2ncc3c(n2)N(C)C(=O)N(c2cccc(N)c2)C3)cn1 [LZQ-02-023-01, Three‐(3‐aminophenyl)‐1‐methyl‐7‐((6‐methylpyridin‐3‐yl)amino)‐3,4‐dihydropyrimido [4,5‐d] pyrimidin‐2 (1H)‐one]",Kd,[1],4.47 µM
same,METTL10 protein levels,[2],significant reduction
same,"Structure-activity relationship, rank among structural analogs",METTL10; METTL10 activity toward GST-PIAS3,most potent inhibitor among its structural analogs
same,Rank of potency among the 22 hit compounds,METTL10; METTL10 activity toward PIAS3,strongest potency
same,IC50,"METTL10; MTase-Glo, bacteria-purified GST-PIAS3 substrate, read-out: IC50, inhibition of METTL10 activity toward PIAS3",11.8 µM
same,GC cell proliferation (CCK-8),MKN45 and AGS cells,significantly inhibited
